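How tested: cells in 96-well plates exposed to compound for 48 hours at five concentrations. The concentration for 50% growth inhibition is given as GI50. TGI: concentration producing complete growth inhibition.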 Where a SMILES comes first, the peptide text is derived from it. Bridges are numbered along the chain shown (N, C = ends). [ ]: non-standard residue; d: D form. The star is where a group is joined. Phe(3,5-F2) = N[C@@H](Cc1cc(F)cc(F)c1)C(=O)O; Pro(4R-Me) = C[C@H]1CN[C@H](C(=O)O)C1; aThr = C[C@H](O)[C@H](N)C(=O)O; Pip = O=C(O)[C@@H]1CCCCN1; X7 = CCC/C=C/C=C/C(=O)*
What was measured:
Assay in all cases: NCI-60 cell line screen, 48 h
786-0 renal = system: 786-0 renal
SNB-75 CNS = system: SNB-75 CNS
HL-60(TB) leukemia = system: HL-60(TB) leukemia
T-47D breast = system: T-47D breast
SK-MEL-28 melanoma = system: SK-MEL-28 melanoma
MDA-MB-435 = system: MDA-MB-435
OVCAR-8 ovarian = system: OVCAR-8 ovarian
SF-539 CNS = system: SF-539 CNS
CCRF-CEM leukemia = system: CCRF-CEM leukemia
HCT-116 colon = system: HCT-116 colon
KM12 colon = system: KM12 colon
COLO 205 colon = system: COLO 205 colon
SNB-19 CNS = system: SNB-19 CNS
DU-145 prostate = system: DU-145 prostate
A498 renal = system: A498 renal
SK-MEL-5 melanoma = system: SK-MEL-5 melanoma
MALME-3M melanoma = system: MALME-3M melanoma
OVCAR-5 ovarian = system: OVCAR-5 ovarian
OVCAR-3 ovarian = system: OVCAR-3 ovarian
SN12C renal = system: SN12C renal
NCI/ADR-RES ovarian = system: NCI/ADR-RES ovarian
UO-31 renal = system: UO-31 renal
MCF7 breast = system: MCF7 breast
BT-549 breast = system: BT-549 breast
SF-268 CNS = system: SF-268 CNS
UACC-62 melanoma = system: UACC-62 melanoma
HOP-92 NSCLC = system: HOP-92 NSCLC
HT29 colon = system: HT29 colon
IGROV1 ovarian = system: IGROV1 ovarian
RXF 393 renal = system: RXF 393 renal
SK-OV-3 ovarian = system: SK-OV-3 ovarian
NCI-H226 lung = system: NCI-H226 lung
NCI-H460 lung = system: NCI-H460 lung
U251 CNS = system: U251 CNS
SW-620 colon = system: SW-620 colon
HCT-15 colon = system: HCT-15 colon
HS 578T breast = system: HS 578T breast
HCC-2998 colon = system: HCC-2998 colon
UACC-257 melanoma = system: UACC-257 melanoma
NCI-H522 lung = system: NCI-H522 lung
MOLT-4 leukemia = system: MOLT-4 leukemia
MDA-MB-231 breast = system: MDA-MB-231 breast
EKVX NSCLC = system: EKVX NSCLC
ACHN renal = system: ACHN renal
A549 NSCLC = system: A549 NSCLC
OVCAR-4 ovarian = system: OVCAR-4 ovarian
TK-10 renal = system: TK-10 renal
K-562 leukemia = system: K-562 leukemia
NCI-H23 lung = system: NCI-H23 lung
SR leukemia = system: SR leukemia
LOX IMVI melanoma = system: LOX IMVI melanoma
HOP-62 NSCLC = system: HOP-62 NSCLC
CAKI-1 renal = system: CAKI-1 renal
SK-MEL-2 melanoma = system: SK-MEL-2 melanoma
M14 melanoma = system: M14 melanoma
SF-295 CNS = system: SF-295 CNS
RPMI-8226 leukemia = system: RPMI-8226 leukemia
PC-3 prostate = system: PC-3 prostate

CCC/C=C/C=C/C(=O)N[C@@H](Cc1cc(F)cc(F)c1)C(=O)N[C@@H]1C(=O)N2CCC[C@H]2C(=O)N2CCCC[C@H]2C(=O)N[C@@H](C)C(=O)N2C[C@H](C)C[C@H]2C(=O)O[C@H]1C (X7-[Phe(3,5-F2)][aThr]P[Pip]A[Pro(4R-Me)]; ester 2-C)
GI50 (786-0 renal): 0.842 µM | TGI (786-0 renal): 31 µM | GI50 (SNB-75 CNS): 0.313 µM | TGI (SNB-75 CNS): 12.7 µM | GI50 (HL-60(TB) leukemia): 0.404 µM | TGI (HL-60(TB) leukemia): 5.83 µM | GI50 (T-47D breast): 0.453 µM | TGI (T-47D breast): 13.9 µM | GI50 (SK-MEL-28 melanoma): 0.987 µM | TGI (SK-MEL-28 melanoma): 14.1 µM | GI50 (MDA-MB-435): 0.412 µM | TGI (MDA-MB-435): 5.71 µM | GI50 (OVCAR-8 ovarian): 0.414 µM | TGI (OVCAR-8 ovarian): > 46.8 µM | GI50 (SF-539 CNS): 0.744 µM | TGI (SF-539 CNS): 13.5 µM | GI50 (CCRF-CEM leukemia): 0.411 µM | TGI (CCRF-CEM leukemia): 14.5 µM | GI50 (HCT-116 colon): 0.42 µM | TGI (HCT-116 colon): 11.4 µM | GI50 (KM12 colon): 1.81 µM | TGI (KM12 colon): 29 µM | GI50 (COLO 205 colon): 0.286 µM | TGI (COLO 205 colon): 0.85 µM | GI50 (SNB-19 CNS): 0.405 µM | TGI (SNB-19 CNS): 35.2 µM | GI50 (DU-145 prostate): 0.619 µM | TGI (DU-145 prostate): > 66.7 µM | GI50 (A498 renal): 2.43 µM | TGI (A498 renal): 28.4 µM | GI50 (SK-MEL-5 melanoma): 0.509 µM | TGI (SK-MEL-5 melanoma): 3.31 µM | GI50 (MALME-3M melanoma): 1.01 µM | TGI (MALME-3M melanoma): 14 µM | GI50 (OVCAR-5 ovarian): 0.583 µM | TGI (OVCAR-5 ovarian): 6.13 µM | GI50 (OVCAR-3 ovarian): 0.596 µM | TGI (OVCAR-3 ovarian): 17.1 µM | GI50 (SN12C renal): 0.419 µM | TGI (SN12C renal): 15.5 µM | GI50 (NCI/ADR-RES ovarian): 2.17 µM | TGI (NCI/ADR-RES ovarian): 16.1 µM | GI50 (UO-31 renal): 1.08 µM | TGI (UO-31 renal): 27.5 µM | GI50 (MCF7 breast): 0.354 µM | TGI (MCF7 breast): 13.6 µM | GI50 (BT-549 breast): 0.37 µM | TGI (BT-549 breast): 3.4 µM | GI50 (SF-268 CNS): 0.957 µM | TGI (SF-268 CNS): > 46.4 µM | GI50 (UACC-62 melanoma): 0.522 µM | TGI (UACC-62 melanoma): 6.37 µM | GI50 (HOP-92 NSCLC): 0.313 µM | TGI (HOP-92 NSCLC): 3.74 µM | GI50 (HT29 colon): 0.586 µM | TGI (HT29 colon): 4.16 µM | GI50 (IGROV1 ovarian): 1.78 µM | TGI (IGROV1 ovarian): 23.7 µM | GI50 (RXF 393 renal): 1.5 µM | TGI (RXF 393 renal): 8.29 µM | GI50 (SK-OV-3 ovarian): 0.499 µM | TGI (SK-OV-3 ovarian): 12.8 µM | GI50 (NCI-H226 lung): 0.547 µM | TGI (NCI-H226 lung): 7.97 µM | GI50 (NCI-H460 lung): 0.5 µM | TGI (NCI-H460 lung): 14.1 µM | GI50 (U251 CNS): 0.451 µM | TGI (U251 CNS): 16.5 µM | GI50 (SW-620 colon): 0.704 µM | TGI (SW-620 colon): > 46.1 µM | GI50 (HCT-15 colon): 0.482 µM | TGI (HCT-15 colon): 11 µM | GI50 (HS 578T breast): 0.594 µM | TGI (HS 578T breast): 17.4 µM | GI50 (HCC-2998 colon): 0.463 µM | TGI (HCC-2998 colon): 4.93 µM | GI50 (UACC-257 melanoma): 0.356 µM | TGI (UACC-257 melanoma): 4.16 µM | GI50 (NCI-H522 lung): 0.462 µM | TGI (NCI-H522 lung): 13 µM | GI50 (MOLT-4 leukemia): 1.11 µM | TGI (MOLT-4 leukemia): > 44 µM | GI50 (MDA-MB-231 breast): 0.409 µM | TGI (MDA-MB-231 breast): 3.36 µM | GI50 (EKVX NSCLC): 0.491 µM | TGI (EKVX NSCLC): 26.2 µM | GI50 (ACHN renal): 1.12 µM | TGI (ACHN renal): 28.7 µM | GI50 (A549 NSCLC): 0.506 µM | TGI (A549 NSCLC): > 58.5 µM | GI50 (OVCAR-4 ovarian): 0.395 µM | TGI (OVCAR-4 ovarian): 19.3 µM | GI50 (TK-10 renal): 1.05 µM | TGI (TK-10 renal): 43.7 µM | GI50 (K-562 leukemia): 0.402 µM | TGI (K-562 leukemia): > 100 µM | GI50 (NCI-H23 lung): 0.389 µM | TGI (NCI-H23 lung): 13.4 µM | GI50 (SR leukemia): 0.892 µM | TGI (SR leukemia): 26.4 µM | GI50 (LOX IMVI melanoma): 0.433 µM | TGI (LOX IMVI melanoma): 12.8 µM | GI50 (HOP-62 NSCLC): 0.516 µM | TGI (HOP-62 NSCLC): 16.9 µM | GI50 (CAKI-1 renal): 0.415 µM | TGI (CAKI-1 renal): 12.5 µM | GI50 (SK-MEL-2 melanoma): 0.422 µM | TGI (SK-MEL-2 melanoma): 5.1 µM | GI50 (M14 melanoma): 0.461 µM | TGI (M14 melanoma): 5.23 µM | GI50 (SF-295 CNS): 0.358 µM | TGI (SF-295 CNS): 2.03 µM | GI50 (RPMI-8226 leukemia): 0.339 µM | TGI (RPMI-8226 leukemia): 4.76 µM | GI50 (PC-3 prostate): 0.367 µM | TGI (PC-3 prostate): 17.2 µM

Source: PubChem BioAssay (NCI)
